According to patent US8188093B2, “Pyrazinecarboxamide derivatives as HDL-cholesterol raising agents” (Hoffmann-La Roche Inc., priority 2006, dated 2012):
One block for each compound: values may come before it.

Legend:
[1] = tested on: obese male Sprague Dawley rats; assay: Effects on plasma lipid levels (HDL cholesterol) in obese, high fat diet fed rats; format: in vivo, rat; conditions: 28-29 days
Method: Efficacy of compounds in modulating plasma lipid levels was determined also in obese male Sprague Dawley rats after 28-29 days administration of compounds. Male Sprague-Dawley rats of 10 weeks of age were fed a high fat diet during 3 weeks. Obese rats were distributed in groups according to homogeneous BW and FI evaluated a week before the start of the treatment. Treatment was administered as food-Admix. On day 29, blood was taken in the morning under slight anesthesia (retro-orbital method) in post-prandial conditions i.e. 4 h after food was removed. Plasma was separated from blood by low speed centrifugation and selected organs were taken (e.g. liver, fat). Total cholesterol, HDL-cholesterol, and triglycerides were determined by measuring total cholesterol, HDL-cholesterol and triglyceride using colorimetric enzymatic assays (Roche Diagnostic GmbH, Mannheim, Germany). HDL-C was also quantified using size exclusion chromatography on superpose-6 column using a SMART system (Pharmacia). Lipoprotein distribution was calculated assuming a Gaussian distribution for each peak, using a nonlinear, least-squares curve-fitting procedure to calculate the area under the curve (AUC). Compound concentration was also determined in plasma.

[2] = tested on: lean, chow-fed male Sprague-Dawley rats; assay: Effects on plasma lipid levels (HDL cholesterol) in lean, chow fed rats; format: in vivo, rat; conditions: 30 mg/kg p.o. of compound, once daily for five days, size exclusion chromatography AUC
Method: Effects of compounds of formula I on plasma lipid levels were determined in lean, chow-fed male Sprague-Dawley rats with compounds administered by p.o. gavage. After one week of acclimation, blood samples were collected from 4 hour-fasted animals for plasma lipid determination. Animals were then assigned to treatment groups based on HDL-cholesterol levels. Compounds of formula I were administered by gavage, once daily for five days. Control animals received vehicle alone. Blood was collected on day five from 4 hour-fasted rats, 2 hours after a final treatment, for plasma lipid analysis. Total cholesterol, HDL-cholesterol, and triglycerides were determined by measuring total cholesterol, HDL-cholesterol, and triglyceride using colorimetric enzymatic assays (Roche Diagnostic GmbH, Mannheim, Germany). HDL-C was also quantified using size exclusion chromatography on superpose-6 column using a SMART system (Pharmacia). Lipoprotein distribution was calculated assuming a Gaussian distribution for each peak, using a nonlinear, least-squares curve-fitting procedure to calculate the area under the curve (AUC). Compound concentration was also determined in plasma.

hamsters = assay: Effects on plasma lipid levels (HDL cholesterol) in hamsters; format: in vivo, hamster; conditions: 30 mg/kg po of compound, once daily for five days
Method: Efficacy of compounds in modulating plasma lipid levels was determined in hamsters after 5 days of daily administration of compounds. Male hamsters of 6-8 weeks of age were used in the studies. After one week of acclimation, blood samples were collected from 4 hour-fasted animals for plasma lipid determination. Animals were then assigned to treatment groups based on HDL-cholesterol levels. Compounds were administered by gavage, once daily for five days. Control animals received vehicle alone. Blood was collected on day five from 4 hour-fasted hamsters, 2 hours after a final treatment, for plasma lipid analysis. Total cholesterol, HDL-cholesterol, LDL-cholesterol, and triglycerides were determined using colorimetric enzymatic assays (Roche Diagnostic GmbH, Mannheim, Germany). HDL-cholesterol, LDL-cholesterol, and VLDL-cholesterol levels were also quantified using size exclusion chromatography on superpose-6 column using a SMART system (Pharmacia). Lipoprotein distribution was calculated assuming a Gaussian distribution for each peak, using a nonlinear, least-squares curve-fitting procedure to calculate the area under the curve. Compound concentration was also determined in plasma.

[3] = 30 mg/kg food admix of compound

Compound: O=C(N[C@@H]1CCCC[C@H]1O)c1cnc(OCC2CC2)c(-c2ccc(Cl)cc2)c1 [5-(4-chloro-phenyl)-6-cyclopropylmethoxy-N-((1R,2R)-2-hydroxy-cyclohexyl)-nicotinamide]
- HDL Cholesterol levels [AUC as % compared to control] [1, 3]: +84%
- HDL Cholesterol levels [AUC as % compared to control] [2]: +30%

- melting point: 154 to 155 °C
Compound: O=C(N[C@@H]1CCCC[C@H]1O)c1cnc(Oc2ccccc2Cl)c(-c2ccc(Cl)cc2)n1 [Example 39, 5-(2-Chloro-phenoxy)-6-(4-chloro-phenyl)-pyrazine-2-carboxylic acid ((1R,2R)-2-hydroxy-cyclohexyl)-amide]

- melting point: 172 to 178 °C
Compound: CCCCOc1ncc(C(=O)N[C@@H]2CCCC[C@H]2O)cc1-c1cc(C(F)(F)F)ccc1F

Compound: COCCOc1ncc(C(=O)N[C@@H]2CCCC[C@H]2O)cc1-c1ccc(Cl)cc1 [5-(4-chloro-phenyl)-N-((1R,2R)-2-hydroxy-cyclohexyl)-6-(2-methoxy-ethoxy)-nicotinamide]
- HDL Cholesterol levels [AUC as % compared to control] [1, 3]: +50%

Compound: O=C(N[C@@H]1CCCC[C@H]1O)c1cnc(OCC2CC2)c(-c2ccc(F)cc2)c1 [6-cyclopropylmethoxy-5-(4-fluoro-phenyl)-N-((1R,2R)-2-hydroxy-cyclohexyl)-nicotinamide]
- HDL Cholesterol levels [AUC as % compared to control] [2]: +35%

Compound: Cc1c(C(=O)NN2CCCCC2)nn(-c2ccc(Cl)cc2Cl)c1-c1ccc(Cl)cc1 [Rimonabant, reference compound]
- HDL Cholesterol levels [AUC as % compared to control] ([1]; 10 mg/kg food admix): +11%

Compound: C[C@](O)(CNC(=O)c1cnc(OCC2CC2)c(-c2ccc(F)cc2)c1)C1CC1 [N—((R)-2-cyclopropyl-2-hydroxy-propyl)-6-cyclopropylmethoxy-5-(4-fluorophenyl)-nicotinamide]
- HDL Cholesterol levels [AUC as % compared to control] [2]: +73%

Compound: O=C(N[C@@H]1CCCC[C@H]1O)c1cnc(OCC(F)(F)F)c(-c2ccc(Cl)cc2)c1 [5-(4-chloro-phenyl)-N-((1R,2R)-2-hydroxy-cyclohexyl)-6-(2,2,2-trifluoroethoxy)-nicotinamide]
- HDL Cholesterol levels [AUC as % compared to control] [2]: +78%
- HDL Cholesterol levels [AUC as % compared to control] (hamsters): +69%
